Measurements as given in patent publication US20240182442A1, “ANHYDROUS POLYMORPHS OF ANDROGEN RECEPTOR ANTAGONIST, PREPARATION METHOD THEREFOR, AND USE THEREOF” (SUZHOU KINTOR PHARMACEUTICALS, INC., priority 2021, published 2024).
Each block holds one compound with its values, some of them ahead of it.

Assays:
[1] = Suspension competition test of mixed crystalline forms A/B/C/D in saturated solution (thermodynamic transition); type: physicochemical
Method: To study the thermodynamic transition relationship of the four anhydrous polymorphs (respectively corresponding to A/B/C/D), samples (each sample was about 5 mg) having crystalline forms A/B/C/D were mixed and added respectively under the conditions of 5° C./room temperature (about 20° C.)/50° C./90° C. to a saturated solution of the compound of formula I (for example, ethanol or methyl tert-butyl ether) (about 1.0 mL), and stirred (magnetic stirring, about 800 rpm). solid was separated (centrifugation, about 10000 rpm, 1 min), and XRPD test was performed.

[2] = Heat treatment test under nitrogen protection (crystal transformation); type: physicochemical; conditions: for crystal transformation on heating: nitrogen
Source text: At the same time, the above crystal transformation phenomenon can also be confirmed by the absorption/exothermic peaks appearing in FIG. 7 and FIG. 11.

[3] = Dynamic vapor sorption (DVS) hygroscopicity evaluation, with XRPD before and after; type: physicochemical
Method: The DVS curves were collected on a DVS Intrinsic Dynamic Moisture Sorption meter from SMS (Surface Measurement Systems). The relative humidity at 25° C. was corrected with the deliquescence points of LiCl, Mg (NO3)2 and KCl.

[4] = Solid-state stability, one week storage, tested by XRPD and HPLC; type: physicochemical; conditions: for Purity (Peak area %) / Relative purity (%/Control): one week; for Purity (Peak area %): HPLC; for Relative purity (%/Control): vs 5° C. sealed control
Source text: Samples were removed after one week, and the obtained samples were characterized and tested by XRPD and HPLC to respectively detect changes in crystalline form and purity.

[5] = Pharmacokinetic study, skin application to SD rats; type: in vivo, SD rats (Sprague-Dawley rats); conditions: for ratio of AUC(0-t) on day 7 to day 1: 12 mg/kg skin application once a day for 7 days
Source text: The obtained blood concentration data were simultaneously used to calculate the relevant pharmacokinetic parameters using the pharmacokinetic processing software WinNonlin v5.2 […] for plasma pharmacokinetic characterization analysis.

crystal transformation by suspension agitation ([1]; less than 90° C.): transformed into the form D
crystal transformation on heating ([2]; heated to about 160° C. and then cooled to room temperature): transformed into crystalline form B
SMILES: COc1c(C#N)ccc(N2C(=O)C(C)(C)N(c3ccc(C)nc3)C2=S)c1F [crystalline form A, 4-[4,4-dimethyl-3-(6-methylpyridin-3-yl)-5-oxo-2-thioxoimidazolidin-1-yl]-3-fluoro-2-methoxybenzonitrile]

relative stability of the crystalline form ([2]; under heating conditions): more stable than crystalline forms A/C
SMILES: COc1c(C#N)ccc(N2C(=O)C(C)(C)N(c3ccc(C)nc3)C2=S)c1F [crystalline form B, 4-[4,4-dimethyl-3-(6-methylpyridin-3-yl)-5-oxo-2-thioxoimidazolidin-1-yl]-3-fluoro-2-methoxybenzonitrile]

crystal transformation on heating ([2]; further heated to about 166° C. and cooled to room temperature): transformed into crystalline form B
crystal transformation on heating ([2]; heated to about 148° C.): transformed into crystalline forms B/D
SMILES: COc1c(C#N)ccc(N2C(=O)C(C)(C)N(c3ccc(C)nc3)C2=S)c1F [crystalline form C, 4-[4,4-dimethyl-3-(6-methylpyridin-3-yl)-5-oxo-2-thioxoimidazolidin-1-yl]-3-fluoro-2-methoxybenzonitrile]

hygroscopicity (conclusion in words) ([3]; DVS, 0% RH to 80% RH, 25° C.): almost no hygroscopicity
crystalline form before and after the DVS test (XRPD) ([3]; before vs after DVS experiment): maintained the same crystalline form
water absorbed (moisture absorption, DVS) ([3]; relative humidity increased from 0% RH to 80% RH, 25° C.): 0.14 wt %
Solid crystalline form after one week ([4]; 5° C., sealed (control)): Crystalline form D
Purity (Peak area %) ([4]; 5° C., sealed (control)): 99.9 Peak area %
Solid crystalline form after one week ([4]; 25° C./60% RH, open): Crystalline form D
Purity (Peak area %) ([4]; 25° C./60% RH, open): 99.9 Peak area %
Relative purity (%/Control) ([4]; 25° C./60% RH, open): 100.0 %/Control
Solid crystalline form after one week ([4]; 40° C./75% RH, open): Crystalline form D
Purity (Peak area %) ([4]; 40° C./75% RH, open): 99.9 Peak area %
Relative purity (%/Control) ([4]; 40° C./75% RH, open): 100.0 %/Control
ratio of AUC(0-t) on day 7 to day 1 ([5]; female SD rats): 0.942
ratio of AUC(0-t) on day 7 to day 1 ([5]; male SD rats): 1.30
accumulation after repeated administration ([5]; male and female SD rats, 12 mg/kg skin application, 7 days): no obvious accumulation
SMILES: COc1c(C#N)ccc(N2C(=O)C(C)(C)N(c3ccc(C)nc3)C2=S)c1F [crystalline form D, 4-[4,4-dimethyl-3-(6-methylpyridin-3-yl)-5-oxo-2-thioxoimidazolidin-1-yl]-3-fluoro-2-methoxybenzonitrile]
relative stability of the crystalline form ([1]; at room temperature): more stable than the crystalline forms A/B/C
